Test results published in patent US10231453B2, “5-substituted imidazole derivatives” (BAYER CROPSCIENCE AKTIENGESELLSCHAFT, priority 2015, dated 2019).

System: not listed separately
Experiment: Measurement of LogP values by HPLC on reversed phase columns (EEC directive 79/831 Annex V.A8)
Format: physicochemical
Settings: method [a]: LC-UV, acidic range, 0.1% formic acid in water and acetonitrile as eluent; Table 1
Description: Measurement of Log P values was performed as outlined above.

Compound | chromatographic logP
CC1(C(O)(Cc2ccccc2Cl)Cn2cncc2C#N)CC1 (centres unmarked) [Example I-79] | 2.87
CC(C)C(O)(Cc1ccccc1Cl)Cn1cncc1C#N (centres unmarked) [Example I-82] | 2.67
Cc1cccc(CC(O)(Cn2cncc2C#N)C2(Cl)CC2)c1F (centres unmarked) [Example I-142] | 2.99
Cc1ccccc1CC(O)(Cn1cncc1Cl)C1(Cl)CC1 (centres unmarked) [Example I-71] | 2.33
N#Cc1cncn1CC(O)(Cc1ccc(F)cc1F)CC1CC1 (centres unmarked) [Example I-130] | 2.69
N#Cc1cncn1CC(O)(Cc1ccccc1Cl)C1CC1 (centres unmarked) [Example I-80] | 2.57
CC1(C(O)(Cc2ccccc2F)Cn2cncc2C#N)CC1 (centres unmarked) [Example I-131] | 2.68
OC(Cc1ccccc1Cl)(Cn1cncc1I)C1(Cl)CC1 (centres unmarked) [Example I-14] | 2.14
OC(Cc1ccnc(Cl)c1)(Cn1cncc1Cl)C1(Cl)CC1 (centres unmarked) [Example I-75] | 1.62
CC1(C(O)(Cc2ccc(F)cc2F)Cn2cncc2C#N)CC1 (centres unmarked) [Example I-124] | 2.65
Cc1ccc(CC(O)(Cn2cncc2Cl)C2(Cl)CC2)c(F)c1 (centres unmarked) [Example I-108] | 2.34

System: Botrytis cinerea
Experiment: In vivo preventive test on Botrytis cinerea (grey mould) on gherkin, Examples B, Q1 and R2
Settings: Botrytis cinerea, 500 ppm of active ingredient, preventive spray, evaluated 4 to 5 days after inoculation, read-out: efficacy

Compound | pest or weed control at 500 ppm [%]
CC1(C(O)(Cc2ccccc2Cl)Cn2cncc2C#N)CC1 (centres unmarked) [Example I-79] | 90 to 100
CC(C)C(O)(Cc1ccccc1Cl)Cn1cncc1C#N (centres unmarked) [Example I-82] | 90 to 100
Cc1cccc(CC(O)(Cn2cncc2C#N)C2(Cl)CC2)c1F (centres unmarked) [Example I-142] | 80 to 89
Cc1ccccc1CC(O)(Cn1cncc1Cl)C1(Cl)CC1 (centres unmarked) [Example I-71] | 90 to 100
N#Cc1cncn1CC(O)(Cc1ccc(F)cc1F)CC1CC1 (centres unmarked) [Example I-130] | 90 to 100
CC1(C(O)(Cc2ccccc2F)Cn2cncc2C#N)CC1 (centres unmarked) [Example I-131] | 70 to 79
OC(Cc1ccccc1Cl)(Cn1cncc1I)C1(Cl)CC1 (centres unmarked) [Example I-14] | 90 to 100
OC(Cc1ccnc(Cl)c1)(Cn1cncc1Cl)C1(Cl)CC1 (centres unmarked) [Example I-75] | 80 to 89
CC1(C(O)(Cc2ccc(F)cc2F)Cn2cncc2C#N)CC1 (centres unmarked) [Example I-124] | 90 to 100
Cc1ccc(CC(O)(Cn2cncc2Cl)C2(Cl)CC2)c(F)c1 (centres unmarked) [Example I-108] | 90 to 100

System: Puccinia recondita
Experiment: In vivo preventive test on Puccinia recondita (brown rust on wheat), Examples C and R3
Settings: Puccinia recondita, 264 h; 500 ppm of active ingredient; wheat, preventive spray, evaluated 11 days after inoculation; read-out: efficacy

Compound | pest or weed control at 500 ppm [%]
CC1(C(O)(Cc2ccccc2Cl)Cn2cncc2C#N)CC1 (centres unmarked) [Example I-79] | 90 to 100
CC(C)C(O)(Cc1ccccc1Cl)Cn1cncc1C#N (centres unmarked) [Example I-82] | 90 to 100
Cc1cccc(CC(O)(Cn2cncc2C#N)C2(Cl)CC2)c1F (centres unmarked) [Example I-142] | 80 to 89
Cc1ccccc1CC(O)(Cn1cncc1Cl)C1(Cl)CC1 (centres unmarked) [Example I-71] | 90 to 100
N#Cc1cncn1CC(O)(Cc1ccc(F)cc1F)CC1CC1 (centres unmarked) [Example I-130] | 90 to 100
N#Cc1cncn1CC(O)(Cc1ccccc1Cl)C1CC1 (centres unmarked) [Example I-80] | 80 to 89
CC1(C(O)(Cc2ccccc2F)Cn2cncc2C#N)CC1 (centres unmarked) [Example I-131] | 90 to 100
OC(Cc1ccccc1Cl)(Cn1cncc1I)C1(Cl)CC1 (centres unmarked) [Example I-14] | 80 to 89
OC(Cc1ccnc(Cl)c1)(Cn1cncc1Cl)C1(Cl)CC1 (centres unmarked) [Example I-75] | 70 to 79
CC1(C(O)(Cc2ccc(F)cc2F)Cn2cncc2C#N)CC1 (centres unmarked) [Example I-124] | 90 to 100
Cc1ccc(CC(O)(Cn2cncc2Cl)C2(Cl)CC2)c(F)c1 (centres unmarked) [Example I-108] | 90 to 100

System: Pyrenophora teres
Experiment: In vivo preventive test on Pyrenophora teres (net blotch on barley), Examples D, Q2 and R4
Settings: Pyrenophora teres, 336 h, 500 ppm of active ingredient, preventive spray, evaluated 14 days after inoculation, read-out: efficacy

Compound | pest or weed control at 500 ppm [%]
CC1(C(O)(Cc2ccccc2Cl)Cn2cncc2C#N)CC1 (centres unmarked) [Example I-79] | 90 to 100
CC(C)C(O)(Cc1ccccc1Cl)Cn1cncc1C#N (centres unmarked) [Example I-82] | 80 to 89
Cc1cccc(CC(O)(Cn2cncc2C#N)C2(Cl)CC2)c1F (centres unmarked) [Example I-142] | 80 to 89
Cc1ccccc1CC(O)(Cn1cncc1Cl)C1(Cl)CC1 (centres unmarked) [Example I-71] | 90 to 100
N#Cc1cncn1CC(O)(Cc1ccc(F)cc1F)CC1CC1 (centres unmarked) [Example I-130] | 70 to 79
N#Cc1cncn1CC(O)(Cc1ccccc1Cl)C1CC1 (centres unmarked) [Example I-80] | 80 to 89
CC1(C(O)(Cc2ccccc2F)Cn2cncc2C#N)CC1 (centres unmarked) [Example I-131] | 80 to 89
OC(Cc1ccccc1Cl)(Cn1cncc1I)C1(Cl)CC1 (centres unmarked) [Example I-14] | 80 to 89
OC(Cc1ccnc(Cl)c1)(Cn1cncc1Cl)C1(Cl)CC1 (centres unmarked) [Example I-75] | 80 to 89
CC1(C(O)(Cc2ccc(F)cc2F)Cn2cncc2C#N)CC1 (centres unmarked) [Example I-124] | 90 to 100
Cc1ccc(CC(O)(Cn2cncc2Cl)C2(Cl)CC2)c(F)c1 (centres unmarked) [Example I-108] | 90 to 100

System: Septoria tritici
Experiment: In vivo preventive test on Septoria tritici (leaf spot on wheat), Examples E, Q3 and R5
Settings: Zymoseptoria tritici, 576 h, 500 ppm of active ingredient; wheat, preventive spray, evaluated 24 days after inoculation; read-out: efficacy

Compound | pest or weed control at 500 ppm [%]
CC1(C(O)(Cc2ccccc2Cl)Cn2cncc2C#N)CC1 (centres unmarked) [Example I-79] | 90 to 100
CC(C)C(O)(Cc1ccccc1Cl)Cn1cncc1C#N (centres unmarked) [Example I-82] | 90 to 100
Cc1cccc(CC(O)(Cn2cncc2C#N)C2(Cl)CC2)c1F (centres unmarked) [Example I-142] | 70 to 79
Cc1ccccc1CC(O)(Cn1cncc1Cl)C1(Cl)CC1 (centres unmarked) [Example I-71] | 90 to 100
N#Cc1cncn1CC(O)(Cc1ccc(F)cc1F)CC1CC1 (centres unmarked) [Example I-130] | 90 to 100
N#Cc1cncn1CC(O)(Cc1ccccc1Cl)C1CC1 (centres unmarked) [Example I-80] | 90 to 100
CC1(C(O)(Cc2ccccc2F)Cn2cncc2C#N)CC1 (centres unmarked) [Example I-131] | 90 to 100
OC(Cc1ccccc1Cl)(Cn1cncc1I)C1(Cl)CC1 (centres unmarked) [Example I-14] | 90 to 100
OC(Cc1ccnc(Cl)c1)(Cn1cncc1Cl)C1(Cl)CC1 (centres unmarked) [Example I-75] | 90 to 100
CC1(C(O)(Cc2ccc(F)cc2F)Cn2cncc2C#N)CC1 (centres unmarked) [Example I-124] | 90 to 100
Cc1ccc(CC(O)(Cn2cncc2Cl)C2(Cl)CC2)c(F)c1 (centres unmarked) [Example I-108] | 90 to 100

System: Sphaerotheca fuliginea
Experiment: In vivo preventive test on Sphaerotheca fuliginea (powdery mildew on cucurbits), Examples F and R6
Settings: Podosphaera fuliginea, 360 h; 500 ppm of active ingredient; gherkin, preventive spray, evaluated 15 days after inoculation; read-out: efficacy

Compound | pest or weed control at 500 ppm [%]
CC1(C(O)(Cc2ccccc2Cl)Cn2cncc2C#N)CC1 (centres unmarked) [Example I-79] | 90 to 100
CC(C)C(O)(Cc1ccccc1Cl)Cn1cncc1C#N (centres unmarked) [Example I-82] | 90 to 100
Cc1cccc(CC(O)(Cn2cncc2C#N)C2(Cl)CC2)c1F (centres unmarked) [Example I-142] | 90 to 100
Cc1ccccc1CC(O)(Cn1cncc1Cl)C1(Cl)CC1 (centres unmarked) [Example I-71] | 90 to 100
N#Cc1cncn1CC(O)(Cc1ccc(F)cc1F)CC1CC1 (centres unmarked) [Example I-130] | 90 to 100
N#Cc1cncn1CC(O)(Cc1ccccc1Cl)C1CC1 (centres unmarked) [Example I-80] | 90 to 100
CC1(C(O)(Cc2ccccc2F)Cn2cncc2C#N)CC1 (centres unmarked) [Example I-131] | 90 to 100
OC(Cc1ccccc1Cl)(Cn1cncc1I)C1(Cl)CC1 (centres unmarked) [Example I-14] | 90 to 100
OC(Cc1ccnc(Cl)c1)(Cn1cncc1Cl)C1(Cl)CC1 (centres unmarked) [Example I-75] | 90 to 100
CC1(C(O)(Cc2ccc(F)cc2F)Cn2cncc2C#N)CC1 (centres unmarked) [Example I-124] | 90 to 100
Cc1ccc(CC(O)(Cn2cncc2Cl)C2(Cl)CC2)c(F)c1 (centres unmarked) [Example I-108] | 90 to 100

System: Uromyces appendiculatus
Experiment: In vivo preventive test on Uromyces appendiculatus (bean rust), Examples G and R7
Settings: 264 h, 500 ppm of active ingredient, bean, preventive spray, evaluated 11 days after inoculation, read-out: efficacy

Compound | pest or weed control at 500 ppm [%]
CC1(C(O)(Cc2ccccc2Cl)Cn2cncc2C#N)CC1 (centres unmarked) [Example I-79] | 90 to 100
CC(C)C(O)(Cc1ccccc1Cl)Cn1cncc1C#N (centres unmarked) [Example I-82] | 90 to 100
Cc1cccc(CC(O)(Cn2cncc2C#N)C2(Cl)CC2)c1F (centres unmarked) [Example I-142] | 90 to 100
Cc1ccccc1CC(O)(Cn1cncc1Cl)C1(Cl)CC1 (centres unmarked) [Example I-71] | 90 to 100
N#Cc1cncn1CC(O)(Cc1ccc(F)cc1F)CC1CC1 (centres unmarked) [Example I-130] | 90 to 100
N#Cc1cncn1CC(O)(Cc1ccccc1Cl)C1CC1 (centres unmarked) [Example I-80] | 90 to 100
CC1(C(O)(Cc2ccccc2F)Cn2cncc2C#N)CC1 (centres unmarked) [Example I-131] | 90 to 100
OC(Cc1ccccc1Cl)(Cn1cncc1I)C1(Cl)CC1 (centres unmarked) [Example I-14] | 90 to 100
OC(Cc1ccnc(Cl)c1)(Cn1cncc1Cl)C1(Cl)CC1 (centres unmarked) [Example I-75] | 90 to 100
CC1(C(O)(Cc2ccc(F)cc2F)Cn2cncc2C#N)CC1 (centres unmarked) [Example I-124] | 90 to 100

System: Blumeria graminis fsp. hordei
Experiment: In vivo preventive Blumeria test (barley), Example K
Settings: 168 h, 500 ppm of active ingredient, preventive spray, evaluated 7 days after inoculation, read-out: efficacy
From the text: After the spray coating has been dried, the plants are dusted with spores of Blumeria graminis fsp. hordei.

Compound | pest or weed control at 500 ppm [%]
N#Cc1cncn1CC(O)(Cc1ccccc1Cl)C1CC1 (centres unmarked) [Example I-80] | 90 to 100
OC(Cc1ccnc(Cl)c1)(Cn1cncc1Cl)C1(Cl)CC1 (centres unmarked) [Example I-75] | 90 to 100
